Consider one compound from patent US11344499B2, “Nanoparticles as delivery vehicles of active ingredients and methods for the production thereof” (CONSIGLIO NAZIONALE DELLE RICERCHE, priority 2017, dated 2022).

The test system of assay [1] is HT29 cells. Kind of assay: Count of alive cells after treatment. It counts as cell-based, human. To be noted: HT29, 50 μM of 9-HSA, 24 h. The method, then:
Briefly 5.0×10^3 human colon adenocarcinoma cell line HT29 cells were seeded in 200 μl of growth medium in replicate (n=4) in a 48-well culture plate. After 24 h of cell growth, the medium was removed and the cells were incubated with the experimental medium containing KNPs-9HSA (50 μM of 9-HSA) and free 9-HSA. Twenty-four hours after treatment, cells were detached and counted.

Assay [2] concerns HT29 cells. The assay can be described thus: Cell cycle analysis by flow cytometry (PI). The following applies: HT29, 50 μM of 9-HSA, 24 h. It counts as cell-based, human. The method, then:
Cell cycle analysis was performed as follows: 5.0×10^3 HT29 cells were seeded in 200 μl of growth medium in a 48-well culture plate. After 24 h of cell growth, the medium was removed and the cells were incubated with the experimental medium containing KER-NPs-9HSA (50 μM of 9-HSA) and free 9-HSA. Twenty-four hours after treatment, cells were trypsinized, washed twice with PBS and then centrifuged. Cells pellet was re-suspended in 0.01% Nonidet-P40 (Sigma-Aldrich), 10 μg/mL of RNasi (Sigma-Aldrich), 0.1% of sodium citrate (Sigma-Aldrich), 50 μg/mL di propidium iodide (PI) (Sigma-Aldrich), and kept in the dark for 30 min at room temperature. Florescence was detected by a flow cytometry (Beckman Coulter Epics XL-MCL), while cell cycle analysis was performed with Cell Cycle program (MODEFIT 5.0).
(A flow cytometer gives signals particle by particle.)

As to `CCCCCCCCCC(O)CCCCCCCC(=O)O` (centres unmarked) [Entry 9-HSA, 9-hydroxystearic acid], the “tumor cell proliferation (number of alive cells)” value in the assay with HT29 cells [1] was “inhibit tumor cell proliferation”. In the assay on HT29 cells [2], the cell cycle effect entry is on record as “blocks the cell cycle in the G0/G1 phase”.
